Results published in ChEMBL document CHEMBL1127928, “Macrolide-type motilin receptor agonists: Assessment of the biological value of the 2- and 4-hydroxyl groups of acid-stable 8,9-anhydroerythromycin A 6,9-hemiacetals” (Bioorg Med Chem Lett, 1994).
≈ marks a conversion by molar mass, not a printed value.

What was measured:
Canis familiaris [1] = assay: In vivo contractile activity in the gastric antrum and the small intestine in fasted conscious dogs upon intragastric administration was determined; format: functional, Canis lupus familiaris
Motilin receptor [2] = molecular target: T1, Motilin receptor (Oryctolagus cuniculus, UniProt A5A4K8); assay: In vitro binding affinity towards motilin receptor was determined in rabbit small intestinal smooth muscle tissue homogenate; format: tissue-based
T1 sequence (A5A4K8 whole entry): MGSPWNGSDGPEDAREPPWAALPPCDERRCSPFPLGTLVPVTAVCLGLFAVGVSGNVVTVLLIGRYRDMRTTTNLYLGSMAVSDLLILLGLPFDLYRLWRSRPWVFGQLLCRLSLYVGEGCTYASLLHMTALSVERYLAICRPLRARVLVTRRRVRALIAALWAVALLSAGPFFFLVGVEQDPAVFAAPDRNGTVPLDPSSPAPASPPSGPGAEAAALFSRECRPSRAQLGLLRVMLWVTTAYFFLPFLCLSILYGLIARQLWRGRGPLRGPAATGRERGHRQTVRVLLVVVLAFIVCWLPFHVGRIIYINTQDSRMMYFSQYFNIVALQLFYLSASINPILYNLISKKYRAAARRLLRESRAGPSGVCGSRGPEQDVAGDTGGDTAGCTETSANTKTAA

Streptococcus pneumoniae = assay: Tested for antimicrobial activity against Streptococcus pneumoniae No. 12; format: functional
Motilin receptor [3] = molecular target: T1, Motilin receptor; assay: In vitro binding affinity towards motilin receptor was determined after treatment with hydrochloric acid in rabbit small intestinal smooth muscle tissue homogenate; format: tissue-based
Canis familiaris [4] = assay: In vivo contractile activity in the gastric antrum and the small intestine in fasted conscious dogs upon intravenous administration was determined; format: functional, Canis lupus familiaris
Oryctolagus cuniculus = species on record: Oryctolagus cuniculus; assay: In vitro contractile activity was measured in the rabbit duodenum preparation; format: functional
Staphylococcus aureus = assay: Tested for antimicrobial activity against Staphylococcus aureus 209P; format: functional
Bacillus subtilis = assay: Tested for antimicrobial activity against Bacillus subtilis ATCC 6633; format: functional
Klebsiella pneumoniae = assay: Tested for antimicrobial activity against Klebsiella pneumoniae IFO 3512; format: functional

IC50 (Motilin receptor [2])	MIC (Streptococcus pneumoniae)	IC50 (Motilin receptor [3])	EC50 (Oryctolagus cuniculus)	MIC (Staphylococcus aureus)	MIC (Bacillus subtilis)	MIC (Klebsiella pneumoniae)	MIC (Streptococcus pneumoniae; read-out: MIC)	Compound	MI100 (Canis familiaris [1])	MI100 (Canis familiaris [4])
2.51 nM	100 µg/mL	1.78 nM	6.17 nM	–	–	–	–	CCC1OC(=O)C(C)C(O[C@H]2C[C@@](C)(OC)CC(C)O2)C(C)[C@@H](OC2OC(C)CC(N(C)C(C)C)[C@H]2O)[C@]2(C)CC(C)=C(O2)[C@H](C)C(=O)[C@]1(C)OC (some centres undefined)	0.3 µg/kg	0.09 µg/kg
2.29 nM	–	3.89 nM	10.5 nM	100 µg/mL (≈ 140 µM)	50 µg/mL (≈ 70.2 µM)	100 µg/mL (≈ 140 µM)	1600 µM	CCC1OC(=O)C(C)C(O[C@H]2C[C@@](C)(OC)CC(C)O2)C(C)[C@@H](OC2OC(C)CC(N(C)C)[C@H]2O)[C@]2(C)CC(C)=C(O2)[C@H](C)C(=O)[C@]1(C)OC (some centres undefined)	1.2 µg/kg	0.4 µg/kg
3.47 nM	100 µg/mL	3.8 nM	9.12 nM	–	–	–	–	CCC1OC(=O)C(C)C(O[C@H]2C[C@@](C)(OC)CC(C)O2)C(C)[C@@H](OC2OC(C)CC(N(C)CC)[C@H]2O)[C@]2(C)CC(C)=C(O2)[C@H](C)C(=O)[C@]1(C)OC (some centres undefined)	0.2 µg/kg	0.3 µg/kg
1.86 nM	–	–	209 nM	–	–	–	–	CCC1OC(=O)C(C)C(O[C@H]2C[C@@](C)(OC)CC(C)O2)C(C)[C@@H](OC2CC(N(C)C(C)C)CC(C)O2)[C@]2(C)CC(C)=C(O2)[C@H](C)C(=O)[C@]1(C)OC (some centres undefined)	–	>70 µg/kg
